This is an account of results in PubChem BioAssay AID228 (DTP/NCI, 2004).

SMILES strings stand for the structures. Where “and” joins values, the source holds several entries; their conditions need not be identical. Equal values may be shown once. Inconclusive results are not listed.

The test system of this assay is BDF1 mice, Friend leukemia sc, tumor weight T/C. The experiment in a line: NCI In Vivo Anticancer Drug Screen. Data for tumor model Friend Virus Leukemia (Solid) (subcutaneous) in B6D2F1 (BDF1) mice. The settings on record: endpoint: mean tumor weight, higher = larger tumour. How it is done: The antitumor activity of compounds was measured in mice bearing transplantable tumors. Survival or tumor size were measured and the results are expressed as the measurement made in the treated group (T) divided by the measurement made in the vehicle treated control group (C). The tumor model used in this assay is Friend Virus Leukemia (Solid) (subcutaneous) in B6D2F1 (BDF1) mice

The mark [1] stands for this setting: dose: 25.0 mg/kg/injection, schedule: Q01DX011 (ip), vehicle: saline.
Setting [2] is: dose: 0.4 mg/kg/injection, schedule: Q01DX011 (ip), vehicle: carboxymethylcellulose (CMC).
Setting [3] is: dose: 100.0 mg/kg/injection, schedule: Q01DX011 (ip), vehicle: saline.
[4] abbreviates: dose: 200.0 mg/kg/injection, schedule: Q01DX011 (ip), vehicle: saline.
Setting [5] is: dose: 50.0 mg/kg/injection, schedule: Q01DX011 (ip), vehicle: carboxymethylcellulose (CMC).
Where [6] appears, read: dose: 100.0 mg/kg/injection, schedule: Q01DX011 (ip), vehicle: carboxymethylcellulose (CMC).
The mark [7] stands for this setting: dose: 50.0 mg/kg/injection, schedule: Q01DX011 (ip), vehicle: saline.

Take `O=c1cnn(C2OC(CO)C(O)C2O)c(=O)[nH]1` (stereo not drawn): the T/C reads like this: (dose: 62.5 mg/kg/injection, schedule: Q01DX011 (ip), vehicle: saline) 160 % of control; (dose: 125.0 mg/kg/injection, schedule: Q01DX011 (ip), vehicle: saline) 170 % of control; (dose: 500.0 mg/kg/injection, schedule: Q01DX011 (ip), vehicle: saline) 105 % of control.
As to `CCC(=O)NC1=C(N2CC2)C(=O)C(NC(=O)CC)=C(N2CC2)C1=O`, the T/C by setting is: (dose: 0.39 mg/kg/injection, schedule: Q01DX011 (ip), vehicle: carboxymethylcellulose (CMC)) 61 % of control; (dose: 0.78 mg/kg/injection, schedule: Q01DX011 (ip), vehicle: carboxymethylcellulose (CMC)) 48 % of control; (dose: 1.56 mg/kg/injection, schedule: Q01DX011 (ip), vehicle: carboxymethylcellulose (CMC)) 24 % of control; (dose: 3.12 mg/kg/injection, schedule: Q01DX011 (ip), vehicle: carboxymethylcellulose (CMC)) 7 % of control.
Consider `O=NN(CCCl)C(=O)NCCCl`, for which the T/C was 112 % of control (dose: 0.81 mg/kg/injection, schedule: Q01DX011 (ip), vehicle: saline); 102 % of control (dose: 1.62 mg/kg/injection, schedule: Q01DX011 (ip), vehicle: saline); 54 % of control (dose: 3.25 mg/kg/injection, schedule: Q01DX011 (ip), vehicle: saline); 39 % of control (dose: 6.5 mg/kg/injection, schedule: Q01DX011 (ip), vehicle: saline); 88 % of control (dose: 10.0 mg/kg/injection, schedule: Q01DX011 (ip), vehicle: saline); 51 % of control (dose: 15.0 mg/kg/injection, schedule: Q01DX011 (ip), vehicle: saline). The T/C under setting [1] is 4 % of control.
For `CC(=O)[C@H]1CC[C@H]2[C@@H]3CCC4=CC(=O)CC[C@]4(C)[C@H]3CC[C@]12C`, the T/C (dose: 250.0 mg/kg/injection, schedule: Q01DX011 (sc), vehicle: steriod suspending solution) is 228 % of control; the T/C (dose: 500.0 mg/kg/injection, schedule: Q01DX011 (sc), vehicle: steriod suspending solution) is 165 % of control; the T/C (dose: 750.0 mg/kg/injection, schedule: Q01DX011 (sc), vehicle: steriod suspending solution) is 212 % of control; the T/C (dose: 1000.0 mg/kg/injection, schedule: Q01DX011 (sc), vehicle: steriod suspending solution) is 291 % of control.
Regarding `CC(C)CCCCCCCCCCCCC(=O)NCC(=O)NC1C(O)C(O)C(Nc2ncnc3nc[nH]c23)OC1C(O)CO` (stereo not drawn), the T/C was 93 % of control under setting [2]; 83 % of control (dose: 0.6 mg/kg/injection, schedule: Q01DX011 (ip), vehicle: carboxymethylcellulose (CMC)); 52 % of control (dose: 0.9 mg/kg/injection, schedule: Q01DX011 (ip), vehicle: carboxymethylcellulose (CMC)); 50 % of control (dose: 1.35 mg/kg/injection, schedule: Q01DX011 (ip), vehicle: carboxymethylcellulose (CMC)); 37 % of control (dose: 1.35 mg/kg/injection, schedule: Q01DX011 (ip), vehicle: saline).
Consider `O=[As]O`, for which the T/C (dose: 1.6 mg/kg/injection, schedule: Q01DX011 (ip), vehicle: carboxymethylcellulose (CMC)) is 78 % of control; the T/C (dose: 3.25 mg/kg/injection, schedule: Q01DX011 (ip), vehicle: carboxymethylcellulose (CMC)) is 77 % of control; the T/C (dose: 6.5 mg/kg/injection, schedule: Q01DX011 (ip), vehicle: carboxymethylcellulose (CMC)) is 98 % of control; the T/C (dose: 13.0 mg/kg/injection, schedule: Q01DX011 (ip), vehicle: carboxymethylcellulose (CMC)) is 46 % of control.
With `Nc1ccc(O)cc1`, the T/C runs as follows: under setting [3], 64 % of control; under setting [4], 4 % of control.
In the case of `CCCCCCCCCCCCCS`, the T/C under setting [5] is 109 % of control; the T/C under setting [6] is 105 % of control; the T/C (dose: 200.0 mg/kg/injection, schedule: Q01DX011 (ip), vehicle: carboxymethylcellulose (CMC)) was 101 % of control.
For the compound `CO[C@@]12[C@H](COC(N)=O)C3=C(C(=O)C(C)=C(N)C3=O)N1C[C@@H]1N[C@@H]12`, the T/C (dose: 0.06 mg/kg/injection, schedule: Q01DX011 (ip), vehicle: carboxymethylcellulose (CMC)) was 48 % of control; the T/C (dose: 0.1 mg/kg/injection, schedule: Q01DX011 (ip), vehicle: carboxymethylcellulose (CMC)) was 66 % of control; the T/C (dose: 0.13 mg/kg/injection, schedule: Q01DX011 (ip), vehicle: carboxymethylcellulose (CMC)) was 56 % of control; the T/C (dose: 0.2 mg/kg/injection, schedule: Q01DX011 (ip), vehicle: carboxymethylcellulose (CMC)) is 77 % of control; the T/C (dose: 0.25 mg/kg/injection, schedule: Q01DX011 (ip), vehicle: carboxymethylcellulose (CMC)) was 35 % of control and 45 % of control; the T/C under setting [2] was 100 % of control. Also, the T/C (dose: 0.5 mg/kg/injection, schedule: Q01DX011 (ip), vehicle: carboxymethylcellulose (CMC)) is 28 % of control and the T/C (dose: 0.8 mg/kg/injection, schedule: Q01DX011 (ip), vehicle: carboxymethylcellulose (CMC)) was 75 % of control.
In the case of `Cc1ccc(N2CCN(CCCN3CCN(c4ccc(Cl)cc4)CC3)CC2)cc1`, the T/C is 80 % of control (dose: 7.5 mg/kg/injection, schedule: Q01DX011 (ip), vehicle: carboxymethylcellulose (CMC)); 61 % of control (dose: 15.0 mg/kg/injection, schedule: Q01DX011 (ip), vehicle: carboxymethylcellulose (CMC)); 55 % of control and 50 % of control (dose: 30.0 mg/kg/injection, schedule: Q01DX011 (ip), vehicle: carboxymethylcellulose (CMC)); 49 % of control (dose: 60.0 mg/kg/injection, schedule: Q01DX011 (ip), vehicle: carboxymethylcellulose (CMC)).
As for `CCN(CC)CCN1C(=O)c2cccc3cccc(c23)C1=O`, the T/C is, setting by setting: under setting [1], 106 % of control; under setting [7], 72 % of control; under setting [3], 85 % of control.
As for `NCCCC(NC(=O)CCCCCCCCN=C(N)N)C(O)CCCCCCCCN=C(N)N` (stereo not drawn), the T/C reads like this: (dose: 0.38 mg/kg/injection, schedule: Q01DX011 (ip), vehicle: carboxymethylcellulose (CMC)) 102 % of control; (dose: 0.75 mg/kg/injection, schedule: Q01DX011 (ip), vehicle: carboxymethylcellulose (CMC)) 82 % of control; (dose: 1.5 mg/kg/injection, schedule: Q01DX011 (ip), vehicle: carboxymethylcellulose (CMC)) 92 % of control; (dose: 3.0 mg/kg/injection, schedule: Q01DX011 (ip), vehicle: carboxymethylcellulose (CMC)) 96 % of control; (dose: 6.0 mg/kg/injection, schedule: Q01DX011 (ip), vehicle: carboxymethylcellulose (CMC)) 79 % of control.
`O=C(O)Cc1ccc(C2CCCCC2)cc1`: the T/C (dose: 37.5 mg/kg/injection, schedule: Q01DX011 (ip), vehicle: carboxymethylcellulose (CMC)) is 106 % of control; the T/C (dose: 75.0 mg/kg/injection, schedule: Q01DX011 (ip), vehicle: carboxymethylcellulose (CMC)) was 114 % of control; the T/C (dose: 150.0 mg/kg/injection, schedule: Q01DX011 (ip), vehicle: carboxymethylcellulose (CMC)) is 106 % of control; the T/C (dose: 300.0 mg/kg/injection, schedule: Q01DX011 (ip), vehicle: carboxymethylcellulose (CMC)) was 94 % of control.
With `CCn1cnc2c(=S)nc[nH]c21`, the T/C by setting is: (dose: 25.0 mg/kg/injection, schedule: Q01DX011 (ip), vehicle: carboxymethylcellulose (CMC)) 105 % of control; under setting [5], 66 % of control; under setting [6], 12 % of control.
In the case of `OCC1OC(Oc2ccc(O)cc2)C(O)C(O)C1O` (stereo not drawn), the T/C under setting [1] is 84 % of control, the T/C under setting [7] is 97 % of control, the T/C under setting [3] is 97 % of control and the T/C under setting [4] is 75 % of control.
For the compound `CC1CC(C)OS(=O)O1` (stereo not drawn), the T/C was 70 % of control (dose: 44.0 mg/kg/injection, schedule: Q01DX011 (ip), vehicle: saline); 71 % of control under setting [3]; 85 % of control (dose: 150.0 mg/kg/injection, schedule: Q01DX011 (ip), vehicle: saline).
On to `O=c1[nH]cc(N(CCCl)CCCl)c(=O)[nH]1`, for which the T/C is, setting by setting: (dose: 0.21 mg/kg/injection, schedule: Q01DX011 (ip), vehicle: carboxymethylcellulose (CMC)) 87 % of control; (dose: 0.42 mg/kg/injection, schedule: Q01DX011 (ip), vehicle: carboxymethylcellulose (CMC)) 99 % of control; (dose: 0.42 mg/kg/injection, schedule: Q01DX011 (ip), vehicle: saline) 53 % of control; (dose: 0.85 mg/kg/injection, schedule: Q01DX011 (ip), vehicle: carboxymethylcellulose (CMC)) 36 % of control; (dose: 0.85 mg/kg/injection, schedule: Q01DX011 (ip), vehicle: saline) 47 % of control; (dose: 1.3 mg/kg/injection, schedule: Q01DX011 (ip), vehicle: saline) 20 % of control. For the same compound, the T/C (dose: 1.7 mg/kg/injection, schedule: Q01DX011 (ip), vehicle: saline) was 13 % of control.
